ChEMBL document CHEMBL1145182, “Molecular dynamics simulations of the TEM-1 beta-lactamase complexed with cephalothin” (J Med Chem, 2005)

Target: Beta-lactamase TEM (Escherichia coli) (UniProt P62593)
Experiment: Rate of catalysis against TEM-1 beta-lactamase

Beta-lactamase TEM (Escherichia coli), sequence (P62593 whole entry): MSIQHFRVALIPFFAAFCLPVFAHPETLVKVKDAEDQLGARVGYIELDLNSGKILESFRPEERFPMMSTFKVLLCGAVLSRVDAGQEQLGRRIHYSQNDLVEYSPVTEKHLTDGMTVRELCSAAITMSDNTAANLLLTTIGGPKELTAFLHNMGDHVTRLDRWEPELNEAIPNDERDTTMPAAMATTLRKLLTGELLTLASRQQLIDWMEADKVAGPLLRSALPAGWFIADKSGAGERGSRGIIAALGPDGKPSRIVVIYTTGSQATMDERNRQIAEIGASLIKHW

Row | K cat | Compound
1 | 1280 1/S | CC1(C)S[C@@H]2[C@H](NC(=O)Cc3ccccc3)C(=O)N2[C@H]1C(=O)O
2 | 115 1/S | CC(=O)OCC1=C(C(=O)O)N2C(=O)[C@@H](NC(=O)Cc3cccs3)[C@H]2SC1
